Assays:
[1] = tested on: adult Fischer 344 male rat brains; experiment: Adult brain tissue reaction to PNPX loaded HFMs implanted into rat brain (immunohistochemistry); format: in vivo; details: constant release into local brain tissue, compared to blank control HFM; anti-GFAP and anti-CSPG staining; FIG. 6
Text: Following adult central nervous system (CNS) injury, resident cells and blood-derived inflammatory cells become activated and migrate to the lesion site, eventually form a dense glial scar that is believed to play a significant role in inhibiting CNS regeneration. The inhibitory nature of the glial scar is due not only to the existence of inflammatory cell types, but also to the ECM molecules that are derived from them. […] Blocking CSPG biosynthesis may be a potential means to ameliorate CNS glial scar formation. […] CSPG inhibitor 4-nitrophenyl-β-D-xylopyranoside (PNPX) was incorporated into the HFMs during the fabrication process. The inflammatory responses of adult brain tissue to the HFMs with or without PNPX were evaluated and compared.
Polyacrylonitrile/polyvinylchloride copolymer (PAN/PVC) was used as a model non-degradable polymer as a carrier for PNPX delivery, and poly(DL-Lactide-co-glycolide) (PLGA) 50/50 copolymers was employed as a model degradable polymer for PNPX delivery. Polymer-PNPX was dissolved in dimethyl sulfoxide (DMSO). 1% phthalized-chitosan was added into the solution to enhance the PNPX loading efficiency. PNPX loaded HFMs were fabricated using a wet phase-inversion technique. PNPX loading efficiency and releasing profiles were studied in vitro using HPLC. […]

[2] = tested on: Human umbilical cord stem cells; experiment: Survival of stem cells transplanted into brain tissue after exposure to a hypoxia simulating agent; format: in vivo; details: cells exposed to 50 uM/ml for 12 hours before transplantation into brain tissue; vs untreated group
Procedure: Human umbilical cord stem cells were exposed to 50 uM/ml ethyl 3,4-dihydroxybenzoate for 12 hours before transplanted into brain tissue to improve their tolerance to hypoxia condition at the injection site after transplantation procedure. Ethyl 3,4-dihydroxybenzoate can increase glucose uptake and glycolytic metabolism of cells. Increased glucose uptake and glycolytic metabolism is an important compensatory mechanism that allows ATP production to be maintained. Such an approach also increases resistance of the transplanted cells to metabolic poison. The resulting transplanted cells will be adjusted to a deficiency of oxygen and, thus, more resistant to transplantation procedures. The survival rate of the transplanted cells is higher for ethyl 3,4-dihydroxybenzoate treated group than that for untreated group.

Compound	glial scarring response in the vicinity of the PNPX loaded HFM [1]	survival rate of the transplanted cells [2]
O=[N+]([O-])c1ccc(O[C@@H]2OC[C@@H](O)[C@H](O)[C@H]2O)cc1 [PNPX, 4-nitrophenyl-β-D-xylopyranoside]	significantly (P<0.05) suppressed	–
CCOC(=O)c1ccc(O)c(O)c1 [ethyl 3,4-dihydroxybenzoate]	–	higher

Source: patent publication US20060257368A1, “Devices and methods for improved viability of cells” (Clemson University, priority 2005, published 2006)
